From patent US9771389B2, “Tylosin derivatives and method for preparation thereof” (BAYER ANIMAL HEALTH GMBH, priority 2013, dated 2017)
Values after ≈ are worked out from the molar mass of the structure shown.

Assays:
[1] = tested on: M. hemolytica KB345 (Tilmicosin-sensitivity strain); experiment: Paper disc assay, M. hemolytica KB345; type: cell-based, Mannhemia hemolytica; conditions: Table 4
Protocol: (§1) (1) Antibacterial activities against Mannheimia and Pasteurella were determined by the following steps: • 1) M. hemolytica KB345 (Tilmicosin-sensitivity strain) and M. hemolytica KB346 (Tilmicosin-low sensitivity strain) were provided. KB 345 strain stored at −80° C. was seeded to BHIB agar medium (10 mL) by using Microbank beads (Pro-Lab) and platinum nail. After statically incubating the KB 345 strain for 24 hours at 37° C., it was seeded to maintaining slant BHIB agar medium (7 mL) by using platinum loop, further statically incubated for 24 hours at 37° C. to obtain slant. One platinum loop of KB 345 strain stored at the slant was inoculated into a large test tube charged with BHIB liquid medium (10 mL) and then incubated for 24 hours at 37° C. with shaking. • 2) A paper disc (ADVANTEC, Φ:6 mm) was impregnated with a solution of test compound and dried under reduced pressure. • 3) To a melted BHIB agar medium was inoculated 1% of the broth obtained from step 1) above to prepare a test plate. After the medium set, the paper disc prepared in step 2) above was put on the plate and it was incubated at 37° C. • 4) After one day, the inhibition zone diameter and clarity (A to E) were determined. For KB346 strain, the same procedures were repeated.

[2] = tested on: Actinobacillus pleuropneumoniae, 6 isolates; experiment: MIC against Actinobacillus pleuropneumoniae isolates; type: cell-based
Protocol: (§2) Minimal inhibitory concentrations (MICs) were determined against the most prevalent pathogens in cattle (Mannheimia Haemolytica, 3 isolates) and swine (A. pleuropneumoniae, 6 isolates). In addition the activity of several compounds was tested against two bacterial species, i.e. Mannheimia haemolytica and Actinobacillus pleuropneumoniae, which are considered as the most important bacterial respiratory pathogens in cattle and swine, respectively.

[3] = tested on: M. hemolytica KB346 (Tilmicosin-low sensitivity strain); experiment: Paper disc assay, M. hemolytica KB346; type: cell-based, Mannhemia hemolytica; conditions: Table 5
Protocol: as §1

[4] = tested on: Mannheimia haemolytica, 3 isolates; experiment: MIC against Mannheimia haemolytica isolates; type: cell-based
Protocol: as §2

Streptococcus uberis = experiment: MIC50 mastitis pathogens, broth dilution; type: cell-based; conditions: Str uberis, 7 to 12 isolates, 24 hours
Source text: (§3) The activity of several compounds against bacterial mastitis pathogens has been tested under in-vitro conditions according to a recognized procedure (CLSI, document […]-A3, 2008). In this test 7 to 12 representative bacteria belonging to 7 bacterial species that typically cause mastitis in dairy cattle, i.e. Staphylococcus aureus, coagulase negative staphylococci (CNS), Streptococcus uberis, Streptococus dysgalactiae, Streptococcus agalactiae, Arcanobacterium pyogenes and Escherichia coli, were exposed to two-fold dilutions of the test compounds. After 24 hours of incubation the concentration that inhibited the growth of this bacteria was determined. It could be shown that all these bacterial mastitis pathogens were highly susceptible to the test compounds.

[5] = tested on: Streptococus dysgalactiae; experiment: MIC50 mastitis pathogens, broth dilution; type: cell-based; conditions: Str dysgalactiae, 7 to 12 isolates, 24 hours
Source text: as §3

[6] = tested on: coagulase negative staphylococci (CNS); experiment: MIC50 mastitis pathogens, broth dilution; type: cell-based; conditions: 7 to 12 isolates, 24 hours
Source text: as §3

Staphylococcus aureus = experiment: MIC50 mastitis pathogens, broth dilution; type: cell-based; conditions: S. aureus, 7 to 12 isolates, 24 hours
Source text: as §3

Streptococcus agalactiae = experiment: MIC50 mastitis pathogens, broth dilution; type: cell-based; conditions: Str agalactiae, 7 to 12 isolates, 24 hours
Source text: as §3

Escherichia coli = experiment: MIC50 mastitis pathogens, broth dilution; type: cell-based; conditions: E. coli, 7 to 12 isolates, 24 hours
Source text: as §3

Arcanobacterium pyogenes = experiment: MIC50 mastitis pathogens, broth dilution; type: cell-based; conditions: Trueperella pyogenes, A. pyogenes, 7 to 12 isolates, 24 hours
Source text: as §3

Row | Compound | Inhibition zone ([1]; 10 mg/6 mm disk) [mm] | Inhibition zone ([1]; 30 mg/6 mm disk) [mm] | Inhibition zone ([1]; 100 mg/6 mm disk) [mm] | Inhibition zone ([3]; 100 mg/6 mm disk) [mm] | MIC50 (Streptococcus uberis) [µg/mL] | MIC50 [5] [µg/mL] | MIC50 [6] [µg/mL] | MIC50 (Staphylococcus aureus) [µg/mL] | MIC50 (Streptococcus agalactiae) [µg/mL] | MIC50 (Escherichia coli) [µg/mL] | MIC50 (Arcanobacterium pyogenes) [µg/mL] | also measured
1 | CCC1OC(=O)CC(O)C(C)C(OC2OC(C)C(O)C(N(C)C)C2O)C(CCn2cc(-c3ccccc3)nn2)CC(C)C(=O)C=CC(C)=CC1CO (stereo not drawn) [YT112, 20-(4-phenyl-1H-1,2,3-triazol-1-yl)-20-deoxo-5-O-mycaminosyltylonolide] | 20.0 | 25.0 | 29.0 | 11.5 |  |  |  |  |  |  |  | Inhibition zone ([1]; 3 mg/6 mm disk): 17.0 mm; MICs ([2]; pleuropneumoniae isolate 1): 4 µg/mL; MICs ([2]; pleuropneumoniae isolate 2): 4 µg/mL; MICs ([2]; pleuropneumoniae isolate 3): 4 µg/mL; MICs ([2]; pleuropneumoniae isolate 4): 8 µg/mL; MICs ([2]; pleuropneumoniae isolate 5): 4 µg/mL; MICs ([2]; pleuropneumoniae isolate 6): 8 µg/mL; MICs ([4]; M. haemolytica isolate 1): 8 µg/mL; MICs ([4]; M. haemolytica isolate 2): 4 µg/mL; MICs ([4]; M. haemolytica isolate 3): 8 µg/mL
2 | CC[C@H]1OC(=O)C[C@@H](O)[C@H](C)[C@@H](O[C@@H]2OC(C)[C@@H](O)C(N(C)C)C2O)[C@@H](CCN(C)Cc2cn(-c3cnc4ccccc4c3)nn2)C[C@@H](C)C(=O)/C=C/C(C)=C/[C@@H]1CN1CCCCC1 (stereo partly drawn) [YT769] |  |  |  |  | ≤ 0.015 | ≤ 0.015 | 0.25 (≈ 0.281 µM) | 0.25 (≈ 0.281 µM) | ≤ 0.015 | 4 (≈ 4.5 µM) | ≤ 0.015 | 
3 | CC[C@H]1OC(=O)C[C@@H](O)[C@H](C)[C@@H](O[C@@H]2O[C@H](C)[C@@H](O)[C@H](N(C)C)[C@H]2O)[C@@H](CC=O)C[C@@H](C)C(=O)/C=C/C(C)=C/[C@@H]1CO [YT106, 5-O-mycaminosyltylonolide] | 8.5 | 12.5 | 15.0 | 17.0 |  |  |  |  |  |  |  | Inhibition zone ([3]; 10 mg/6 mm disk): 9.0 mm; Inhibition zone ([3]; 30 mg/6 mm disk): 13.0 mm
4 | CC[C@H]1OC(=O)C[C@@H](O)[C@H](C)[C@@H](O[C@@H]2OC(C)[C@@H](O)C(N(C)C)C2O)[C@@H](CCN(Cc2ccccc2)Cc2cn(-c3ccc4ccccc4c3)nn2)C[C@@H](C)C(=O)/C=C/C(C)=C/[C@@H]1CO (stereo partly drawn) [YT762] |  |  |  |  | 0.03 (≈ 0.0335 µM) | 0.12 (≈ 0.134 µM) | 0.25 (≈ 0.279 µM) | 1 (≈ 1.12 µM) | 0.03 (≈ 0.0335 µM) | 8 (≈ 8.93 µM) | 0.015 (≈ 0.0167 µM) | 
5 | CC[C@H]1OC(=O)C[C@@H](O)[C@H](C)[C@@H](O[C@@H]2OC(C)[C@@H](O)C(N(C)C)C2O)[C@@H](CCNCc2cn(-c3cnc4ccccc4c3)nn2)C[C@@H](C)C(=O)/C=C/C(C)=C/[C@@H]1CO (stereo partly drawn) [YT739] |  |  |  |  | 0.03 (≈ 0.0372 µM) | 0.12 (≈ 0.149 µM) | 0.25 (≈ 0.31 µM) | 0.5 (≈ 0.62 µM) | 0.03 (≈ 0.0372 µM) | 8 (≈ 9.91 µM) | 0.008 (≈ 0.00991 µM) | 
6 | CC[C@H]1OC(=O)C[C@@H](O)[C@H](C)[C@@H](O[C@@H]2OC(C)[C@@H](O)C(N(C)C)C2O)[C@@H](CCN(C)Cc2cn(-c3cnc4ccccc4c3)nn2)C[C@@H](C)C(=O)/C=C/C(C)=C/[C@@H]1CN(C)C (stereo partly drawn) [YT770] |  |  |  |  | 0.03 (≈ 0.0354 µM) | 0.03 (≈ 0.0354 µM) | 0.25 (≈ 0.295 µM) | 0.25 (≈ 0.295 µM) | ≤ 0.015 | 4 (≈ 4.72 µM) | ≤ 0.015 | 
